Data reported in patent publication US7825151B2, “Hexahydro-cyclooctyl pyrazole cannabinoid modulators” (priority 2005, dated 2010).

Tested on: DSS induced colitis
Experiment: Dextran sulfate sodium (DSS) induced colitis model
Type: in vivo, Female Balb/c mice
Settings: for % Inh (Macro), % inhibition of colitis: macroscopic score
Description: In the distal colon, the DSS colitis model is characterized by a discontinuous pattern of mucosal epithelial damage, infiltration of inflammatory cells (including macrophages, neutrophils and lymphocytes) into the mucosa and submucosa, […] wet weight of the colon, shrinkage of the colon length and diarrhea (see, Blumberg R. S., Saubermann L. J. and Strober W., Animal models of mucosal inflammation and their relation to human inflammatory bowel disease, Current Opinion in Immunology, 1999, Vol. 11: 648-656; Egger B., Bajaj-Elliott M., MacDonald T. T., Inglin R., Eysselein, V. E. and Buchler M. W., Characterization of acute murine dextran sodium sulphate colitis: Cytokine profile and dose dependency, Digestion, 2000, Vol. 62: 240-248; Stevceva L., Pavli P., Husband A. J. and Doe, W. F., The inflammatory infiltrate in the acute stage of the dextran sulphate sodium induced colitis: B cell response differs depending on the percentage of DSS used to induce it, BMC Clinical Pathology, 2001, Vol 1: 3-13; and Diaz-Granados, Howe K., Lu J. and McKay D. M., Dextran sulfate sodium-induced colonic histopathology, but not altered epithelial ion transport, is reduced by inhibition of phosphodiesterase activity, Amer. J. Pathology, 2000, Vol. 156: 2169-2177).
Female Balb/c mice (Taconic Farms, Germantown, N.Y.) (10-13 weeks old) were provided with a solution of 5% DSS (45 kD molecular weight, ICN chemicals, Newport, Calif.) in tap water ad libitum over a 7-day period. The DSS solution was replenished daily and the amount consumed was measured.
The mice (10 per treatment group) were orally administered a test compound on the day of colitis induction and then daily thereafter.
Six days after the initial DSS administration, the last test compound dose was administered.
Seven days after the initial DSS administration, the animals were sacrificed. The colons were resected, examined for signs of inflammation, weighed after removing fecal contents and the length from the aboral end of the cecum to the anus was measured. The fecal contents were examined for signs of diarrhea. The distal colon between the 1st and the 4th centimeter was removed and placed in 10% neutral buffered formalin for histological analysis.
The macroscopic observations of colon inflammation (a measure of colon damage), colon length and stool consistency and appearance were assigned a score and used to evaluate colitis severity.
The three observation scores for each colon were combined, whereby a combined score of 0 represents a normal colon and a combined score of 11 represents a maximally affected colon. Statistical analyses were performed in Graphpad Prism 4.0 using ANOVA.
Histological analyses of tissues consisted of staining paraffin-embedded tissue sections with hematoxylin-eosin dye. The tissues were examined using light microscopy by an investigator who was blinded to the sample groups.
The microscopic observations of epithelial damage, cellular infiltration and damage or alteration of smooth muscle architecture (a measure of muscle damage) were assigned a score and used to evaluate colitis severity.
The scores for each colon were combined, whereby a combined score of 0 represents a normal colon and a combined score of 9 represents a maximally affected colon. […]
The Macroscopic Score and Microscopic Score results for each treatment group were each combined into a mean score and expressed as % inhibition of colitis (% Inh). […] ND represents Not Determined.

O=C(NCC12CC3CC(CC(C3)C1)C2)c1nn(C2CCCCC2)c2c1CCCCCC2 [Cpd 2, 1-cyclohexyl-4,5,6,7,8,9-hexahydro-1H-cyclooctapyrazole-3-carboxylic acid (adamantan-1-ylmethyl)-amide]
% Inh (Macro), % inhibition of colitis (1 mg/kg oral daily): −4.3 ± 12.9% | % Inh (Macro), % inhibition of colitis (5 mg/kg oral daily): 21.9 ± 15.2% | % Inh (Micro), % inhibition of colitis (5 mg/kg oral daily, microscopic score): 75.7 ± 8.9% | % Inh (Macro), % inhibition of colitis (10 mg/kg oral daily): 50.5 ± 9.0% | % Inh (Macro), % inhibition of colitis (20 mg/kg oral daily): 31.6 ± 8.5%
